Test results reported in PubChem BioAssay AID248 (DTP/NCI, 2004).
“And” between values parts separate entries of the source, which are not always exact repeats. Equal entries are not always repeated. Toxic doses and inconclusive results are not listed. Cut-off read from the data, not from the text of the source: active = T/C of 150% or more; inactive = T/C below 125%.

Tested on: L1210 leukemia ip in BDF1 mice, survival T/C
Experiment: NCI In Vivo Anticancer Drug Screen. Data for tumor model L1210 Leukemia (intraperitoneal) in B6D2F1 (BDF1) mice
Details: endpoint: mean survival time, higher = longer survival
In short: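 Survival endpoint. Drug-treated group vs vehicle group, expressed as T divided by C. Tumor passaged by transplantation.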

[1] = dose: 100.0 mg/kg/injection, schedule: Q01DX001 (ip), vehicle: carboxymethylcellulose (CMC)
[2] = dose: 200.0 mg/kg/injection, schedule: Q01DX001 (ip), vehicle: carboxymethylcellulose (CMC)
[3] = dose: 100.0 mg/kg/injection, schedule: Q01DX009 (ip), vehicle: Klucel (hydroxypropylcellulose) (HPC)
[4] = dose: 200.0 mg/kg/injection, schedule: Q01DX009 (ip), vehicle: Klucel (hydroxypropylcellulose) (HPC)
[5] = dose: 400.0 mg/kg/injection, schedule: Q01DX009 (ip), vehicle: Klucel (hydroxypropylcellulose) (HPC)
[6] = dose: 100.0 mg/kg/injection, schedule: Q01DX001 (ip), vehicle: saline
[7] = dose: 100.0 mg/kg/injection, schedule: Q04DX003 (ip), vehicle: saline
[8] = dose: 200.0 mg/kg/injection, schedule: Q01DX001 (ip), vehicle: saline
[9] = dose: 200.0 mg/kg/injection, schedule: Q04DX003 (ip), vehicle: saline
[10] = dose: 400.0 mg/kg/injection, schedule: Q01DX001 (ip), vehicle: saline
[11] = dose: 400.0 mg/kg/injection, schedule: Q04DX003 (ip), vehicle: saline
[12] = dose: 100.0 mg/kg/injection, schedule: Q04DX003 (ip), vehicle: Klucel (hydroxypropylcellulose) (HPC)
[13] = dose: 200.0 mg/kg/injection, schedule: Q04DX003 (ip), vehicle: Klucel (hydroxypropylcellulose) (HPC)
[14] = dose: 400.0 mg/kg/injection, schedule: Q04DX003 (ip), vehicle: Klucel (hydroxypropylcellulose) (HPC)

Measured: T/C

N=C(c1ccccc1)c1ccccc1S(=O)(=O)Nc1ccccc1
inactive: [1] 95 % of control | [2] 101 % of control | dose: 400.0 mg/kg/injection, schedule: Q01DX001 (ip), vehicle: carboxymethylcellulose (CMC) 95 % of control

N#CSc1ccc(Nc2ccc(SC#N)cc2)cc1
inactive: dose: 12.5 mg/kg/injection, schedule: Q01DX009 (ip), vehicle: Klucel (hydroxypropylcellulose) (HPC) 95 % of control | dose: 25.0 mg/kg/injection, schedule: Q01DX009 (ip), vehicle: Klucel (hydroxypropylcellulose) (HPC) 98 % of control

O=C(COc1cc(Cl)c(Cl)cc1Cl)Nc1ccccc1
inactive: dose: 100.0 mg/kg/injection, schedule: Q04DX002 (ip), vehicle: saline 92 % of control | dose: 200.0 mg/kg/injection, schedule: Q04DX002 (ip), vehicle: saline 100 % of control | dose: 400.0 mg/kg/injection, schedule: Q04DX002 (ip), vehicle: saline 103 % of control

COc1ccc(NC(=O)C(Br)C(Br)c2ccccc2)c(Cl)c1 (stereo not drawn)
inactive: [3] 102 % of control | [4] 97 % of control | [5] 96 % of control

C#CCC(C)OS(=O)(=O)c1ccc(C)cc1 (stereo not drawn)
inactive: [6] 98 % of control | [7] 93 % of control | [8] 102 % of control | [9] 93 % of control | [10] 98 % of control | [11] 91 % of control

Cn1c(=O)n2n(c1=O)C1CCC2C2C=CC21 (stereo not drawn)
inactive: dose: 6.25 mg/kg/injection, schedule: Q01DX001 (ip), vehicle: saline 93 % of control | dose: 12.5 mg/kg/injection, schedule: Q01DX001 (ip), vehicle: saline 94 % of control

CCCCCOCC
inactive: [6] 103 % of control | dose: 100.0 mg/kg/injection, schedule: Q01DX009 (ip), vehicle: saline 96 % of control | [8] 105 % of control | dose: 200.0 mg/kg/injection, schedule: Q01DX009 (ip), vehicle: saline 101 % of control | [10] 103 % of control | dose: 400.0 mg/kg/injection, schedule: Q01DX009 (ip), vehicle: saline 101 % of control

COc1ccc(C(=O)CC(=O)CC(=O)c2ccccc2)cc1
inactive: [3] 117 % of control | [12] 107 % of control | [4] 102 % of control | [13] 96 % of control | [5] 96 % of control | [14] 105 % of control

O=C(CCl)Nc1cc(Cl)ccc1N1CCCC1
inactive: dose: 12.5 mg/kg/injection, schedule: Q01DX009 (ip), vehicle: acetone 100 % of control | dose: 25.0 mg/kg/injection, schedule: Q01DX009 (ip), vehicle: acetone 90 % of control | dose: 50.0 mg/kg/injection, schedule: Q01DX009 (ip), vehicle: acetone 90 % of control

O=C1NC(c2ccc3ccccc3c2)Nc2ccccc21 (stereo not drawn)
inactive: [12] 103 % of control | [13] 107 % of control | [14] 105 % of control

COc1cc(C)nc(OC)n1
inactive: [6] 96 % of control | [8] 96 % of control | [10] 96 % of control

CS(=O)(=O)OC/C(Br)=C/Br
inactive: [1] 103 % of control | [2] 101 % of control

CCCCn1cnc(=S)c2[nH]cnc21
inactive: dose: 50.0 mg/kg/injection, schedule: Q04DX003 (ip), vehicle: Klucel (hydroxypropylcellulose) (HPC) 98 % of control | [12] 114 % of control | dose: 133.0 mg/kg/injection, schedule: Q04DX003 (ip), vehicle: Klucel (hydroxypropylcellulose) (HPC) 118 % of control

NC(=O)c1cc(Cl)c(OCc2ccccc2)c(Cl)c1
inactive: dose: 75.0 mg/kg/injection, schedule: Q01DX001 (ip), vehicle: saline with Tween-80 98 % of control | dose: 150.0 mg/kg/injection, schedule: Q01DX001 (ip), vehicle: saline with Tween-80 103 % of control | dose: 300.0 mg/kg/injection, schedule: Q01DX001 (ip), vehicle: saline with Tween-80 98 % of control

OC1(C2C=CC=C2)c2ccccc2C=Cc2ccccc21
inactive: dose: 9.38 mg/kg/injection, schedule: Q01DX001 (ip), vehicle: other 100 % of control | dose: 18.75 mg/kg/injection, schedule: Q01DX001 (ip), vehicle: other 100 % of control | dose: 37.5 mg/kg/injection, schedule: Q01DX001 (ip), vehicle: other 100 % of control

CCc1nc2ccccc2[nH]1
inactive: dose: 100.0 mg/kg/injection, schedule: Q04DX003 (ip), vehicle: saline with Tween-80 97 % of control | dose: 200.0 mg/kg/injection, schedule: Q04DX003 (ip), vehicle: saline with Tween-80 102 % of control

COC1OCC(COC(=O)c2ccc([N+](=O)[O-])cc2)C1OC(=O)c1ccc([N+](=O)[O-])cc1 (stereo not drawn)
inactive: [1] 88 % of control | [2] 88 % of control

CCSC1C(OC(C)=O)C(C(COC(C)=O)OC(C)=O)OC1n1cc(C)c(=O)[nH]c1=O (stereo not drawn)
inactive: dose: 100.0 mg/kg/injection, schedule: Q01DX005 (ip), vehicle: saline 98 % of control | dose: 200.0 mg/kg/injection, schedule: Q01DX005 (ip), vehicle: saline 100 % of control

N/N=C(\N)NN
inactive: dose: 15.0 mg/kg/injection, schedule: Q01DX Z (ip), vehicle: methylcellulose (MC) 102 % of control | dose: 30.0 mg/kg/injection, schedule: Q01DX Z (ip), vehicle: methylcellulose (MC) 100 % of control | dose: 60.0 mg/kg/injection, schedule: Q01DX Z (ip), vehicle: methylcellulose (MC) 102 % of control | dose: 120.0 mg/kg/injection, schedule: Q01DX Z (ip), vehicle: methylcellulose (MC) 105 % of control | dose: 240.0 mg/kg/injection, schedule: Q01DX Z (ip), vehicle: methylcellulose (MC) 114 % of control | dose: 240.0 mg/kg/injection, schedule: Q01DX Z (oral), vehicle: methylcellulose (MC) 95 % of control | dose: 420.0 mg/kg/injection, schedule: Q01DX Z (oral), vehicle: methylcellulose (MC) 100 % of control | dose: 480.0 mg/kg/injection, schedule: Q01DX Z (ip), vehicle: methylcellulose (MC) 103 % of control | dose: 600.0 mg/kg/injection, schedule: Q01DX Z (oral), vehicle: methylcellulose (MC) 105 % of control | dose: 720.0 mg/kg/injection, schedule: Q01DX Z (ip), vehicle: methylcellulose (MC) 119 % of control

Cc1cc(OCCOC(=O)Nc2cccc(C(F)(F)F)c2)cc(C)c1Cl
inactive: dose: 25.0 mg/kg/injection, schedule: Q01DX009 (ip), vehicle: saline with Tween-80 102 % of control | dose: 50.0 mg/kg/injection, schedule: Q01DX009 (ip), vehicle: saline with Tween-80 102 % of control | dose: 100.0 mg/kg/injection, schedule: Q01DX009 (ip), vehicle: saline with Tween-80 98 % of control and 118 % of control | dose: 200.0 mg/kg/injection, schedule: Q01DX009 (ip), vehicle: saline with Tween-80 93 % of control | dose: 400.0 mg/kg/injection, schedule: Q01DX009 (ip), vehicle: saline with Tween-80 91 % of control

COc1ccc(Br)cc1/C=N\NS(=O)(=O)c1ccc(C)cc1
inactive: dose: 100.0 mg/kg/injection, schedule: Q01DX009 (ip), vehicle: other 100 % of control | [7] 96 % of control | dose: 200.0 mg/kg/injection, schedule: Q01DX009 (ip), vehicle: other 105 % of control | [9] 96 % of control | dose: 400.0 mg/kg/injection, schedule: Q01DX009 (ip), vehicle: other 114 % of control | [11] 93 % of control
